In patent US7208500B2, “Thienopyridine-phenylacetamides and their derivatives useful as new anti-angiogenic agents” (Agouron Pharmaceuticals, Inc., priority 2003, dated 2007):

Assays:
[1] = molecular target: T1, unphosphorylated VEGF-R2D50 (FLVK), cytosolic domain of human VEGF-R2 (Homo sapiens, UniProt P35968, DEL940-989/E990V); experiment: VEGF-R2 coupled spectrophotometric assay (FLVK); format: biochemical
T1 construct: VEGF-R2D50 contains residues 806–939 and 990–1171; made in house; host or cells: baculovirus/insect cell system
Description: This construct determines the ability of a test compound to inhibit tyrosine kinase activity. A construct (VEGF-R2D50) of the cytosolic domain of human vascular endothelial growth factor receptor 2 (VEGF-R2) lacking the 50 central residues of the 68 residues of the kinase insert domain was expressed in a baculovirus/insect cell system. Of the 1356 residues of full-length VEGF-R2, VEGF-R2D50 contains residues 806–939 and 990–1171, and also one point mutation (E990V) within the kinase insert domain relative to wild-type VEGF-R2. Autophosphorylation of the purified construct was performed by incubation of the enzyme at a concentration of […] in the presence of 3 mM ATP and 40 mM MgCl2 in 100 mM HEPES, pH 7.5, containing 5% glycerol and 5 mM DTT, at 4° C. for 2 h. […] See Parast et al., Biochemistry, 37, 16788–16801 (1998).
The production of ADP from ATP that accompanies phosphoryl transfer was coupled to oxidation of NADH using phosphoenolpyruvate (PEP) and a system having pyruvate kinase (PK) and lactic dehydrogenase (LDH). The oxidation of NADH was monitored by following the decrease of absorbance at 340 nm (e340=6.22 cm^−1 mM^−1) using a Beckman DU 650 spectrophotometer. Assay conditions for phosphorylated VEGF-R2D50 (indicated as FLVK-P in the tables below) were the following: 1 mM PEP; […]; 50 units of LDH/mL; 20 units of PK/mL; 5 mM DTT; 5.1 mM poly(E4Y1); 1 mM ATP; and 25 mM MgCl2 in 200 mM HEPES, pH 7.5. Assay conditions for unphosphorylated VEGF-R2D50 (indicated as FLVK in the tables) were the following: 1 mM PEP; […]; 50 units of LDH/mL; 20 units of PK/mL; 5 mM DTT; 20 mM poly(E4Y1); 3 mM ATP; and 60 mM MgCl2 and 2 mM MnCl2 in 200 mM HEPES, pH 7.5. Assays were initiated with 5 to 40 nM of enzyme. Ki values were determined by measuring enzyme activity in the presence of varying concentrations of test compounds. The percent inhibition at 50 nm (% inhibition@50 nm) was determined by linear least-squares regression analysis of absorpbance as a function of time. The binding inhibitions were fitted to equation as described by Morrison. The data were analyzed using Enzyme Kinetic and Kaleidagraph software.

[2] = molecular target: T2, FGF-R1 intracellular kinase domain (Homo sapiens, UniProt P11362, C488A/C584S/L457V); experiment: FGF-R spectrophotometric assay; format: biochemical; details: 50 nM test compound; read-out: FGF-P (% inh @ 50 nM)
T2 construct: starting from the endogenous methionine residue 456 to glutamate 766; made in house; host or cells: baculovirus vector expression system
Description: The intracellular kinase domain of human FGF-R1 was expressed using the baculovirus vector expression system starting from the endogenous methionine residue 456 to glutamate 766, according to the residue numbering system of Mohammadi et al., Mol. Cell. Biol., 16, 977–989 (1996). In addition, the construct also has the following 3 amino acid substitutions: L457V, C488A, and C584S.
The spectrophotometric assay was carried out as described above for VEGF-R2, except for the following changes in concentration: FGF-R=50 nM, ATP=2 mM, and poly(E4Y1)=15 mM.

T1 sequence (P35968 with tags, fused parts or gaps DEL940-989/E990V limits assumed): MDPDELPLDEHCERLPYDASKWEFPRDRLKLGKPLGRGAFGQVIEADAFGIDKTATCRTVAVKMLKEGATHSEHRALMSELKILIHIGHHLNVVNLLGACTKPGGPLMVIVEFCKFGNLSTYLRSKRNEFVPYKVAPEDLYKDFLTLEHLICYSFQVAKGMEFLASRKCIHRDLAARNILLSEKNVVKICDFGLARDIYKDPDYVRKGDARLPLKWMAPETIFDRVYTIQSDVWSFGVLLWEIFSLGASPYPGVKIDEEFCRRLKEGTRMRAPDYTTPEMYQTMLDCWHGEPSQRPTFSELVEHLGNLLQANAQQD
T2 sequence (P11362 456-766 L457V/C488A/C584S): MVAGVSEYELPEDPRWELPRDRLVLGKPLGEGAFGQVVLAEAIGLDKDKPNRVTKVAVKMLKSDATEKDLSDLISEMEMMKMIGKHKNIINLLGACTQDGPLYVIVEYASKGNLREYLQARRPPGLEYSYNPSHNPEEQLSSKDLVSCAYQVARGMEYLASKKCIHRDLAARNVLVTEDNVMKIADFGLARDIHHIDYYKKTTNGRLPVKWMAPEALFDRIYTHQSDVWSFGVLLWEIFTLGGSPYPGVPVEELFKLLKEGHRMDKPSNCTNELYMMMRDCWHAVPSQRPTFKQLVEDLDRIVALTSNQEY

Row | SMILES | Ki [1] | inhibition at 0.05 µM [2]
1 | Cc1cc(C)nc(NC(=O)Cc2ccc(Oc3ccnc4cc(-c5nccn5C)sc34)c(F)c2)c1 [Example 1, N-(4,6-Dimethyl-pyridin-2-yl)-2-{3-fluoro-4-[2-(1-methyl-1H-imidazol-2-yl)-thieno[3,2-b]pyridin-7-yloxy]-phenyl}-acetamide] | < 1 nM | 0 to 5%
2 | CNC(=O)Cc1ccc(Oc2ccnc3cc(C(=O)N4CC[C@@H](O)C4)sc23)c(F)c1 [Example 2, 2-{3-Fluoro-4-[2-((R)-3-hydroxy-pyrrolidine-1-carbonyl)-thieno[3,2-b]pyridin-7-yloxy]-phenyl}-N-methyl-acetamide] | > 10 nM | 0 to 5%
3 | Cc1cc(C)nc(NC(=O)Cc2ccc(Oc3ccnc4cc(C(=O)N(C)CCCN(C)C)sc34)cc2)c1 [Example 5, 7-{4-[(4,6-Dimethyl-pyridin-2-ylcarbamoyl)-methyl]-phenoxy}-thieno[3,2-b]pyridine-2-carboxylic acid (3-dimethylamino-propyl)-methyl-amide] | – | 0 to 5%
4 | Cc1cccnc1NC(=O)Cc1ccc(Oc2ccnc3cc(C(=O)N4CCC4)sc23)cc1 [Example 26, 2-{4-[2-(Azetidine-1-carbonyl)-thieno[3,2-b]pyridin-7-yloxy]-phenyl}-N-(3-methyl-pyridin-2-yl)-acetamide] | > 10 nM | –
5 | O=C(Cc1ccc(Oc2ccnc3cc(C(=O)N4CCC4)sc23)cc1)Nc1ccncc1 [Example 35, 2-{4-[2-(Azetidine-1-carbonyl)-thieno[3,2-b]pyridin-7-yloxy]-phenyl}-N-pyridin-4-yl-acetamide] | > 10 nM | 0 to 5%
6 | Cc1cc(NC(=O)Cc2ccc(Oc3ccnc4cc(C(=O)N5CCC5)sc34)cc2)n[nH]1 [Example 39, 2-{4-[2-(Azetidine-1-carbonyl)-thieno[3,2-b]pyridin-7-yloxy]-phenyl}-N-(5-methyl-1H-pyrazol-3-yl)-acetamide] | – | 0 to 5%
7 | O=C(Cc1ccc(Oc2ccnc3cc(C(=O)N4CCC4)sc23)cc1)Nc1cc[nH]n1 [Example 40, 2-{4-[2-(Azetidine-1-carbonyl)-thieno[3,2-b]pyridin-7-yloxy]-phenyl}-N-(1H-pyrazol-3-yl)-acetamide] | > 10 nM | 0 to 5%
8 | O=C(Cc1ccc(Oc2ccnc3cc(C(=O)N4CCC4)sc23)cc1)Nc1ccon1 [Example 42, 2-{4-[2-(Azetidine-1-carbonyl)-thieno[3,2-b]pyridin-7-yloxy]-phenyl}-N-isoxazol-3-yl-acetamide] | > 10 nM | 0 to 5%
9 | Cc1coc(NC(=O)Cc2ccc(Oc3ccnc4cc(C(=O)N5CCC5)sc34)cc2Cl)n1 [Example 54, 2-{4-[2-(Azetidine-1-carbonyl)-thieno[3,2-b]pyridin-7-yloxy]-2-chloro-phenyl}-N-(4-methyl-oxazol-2-yl)-acetamide] | > 10 nM | 0 to 5%
10 | O=C(Cc1ccc(Oc2ccnc3cc(C(=O)N4CCC4)sc23)cc1Cl)NCCCN1CCOCC1 [Example 57, 2-{4-[2-(Azetidine-1-carbonyl)-thieno[3,2-b]pyridin-7-yloxy]-2-chloro-phenyl}-N-(3-morpholin-4-yl-propyl)-acetamide] | > 10 nM | 0 to 5%
11 | Cc1ccc(CNC(=O)Cc2ccc(Oc3ccnc4cc(-c5nccn5C)sc34)cc2Cl)o1 [Example 58, 2-{2-Chloro-4-[2-(1-methyl-1H-imidazol-2-yl)-thieno[3,2-b]pyridin-7-yloxy]-phenyl}-N-(5-methyl-furan-2-ylmethyl)-acetamide] | > 10 nM | 0 to 5%
12 | Cn1ccnc1-c1cc2nccc(Oc3ccc(CC(=O)NCc4cccc(F)c4)c(Cl)c3)c2s1 [Example 59, 2-{2-Chloro-4-[2-(1-methyl-1H-imidazol-2-yl)-thieno[3,2-b]pyridin-7-yloxy]-phenyl}-N-(3-fluoro-benzyl)-acetamide] | > 10 nM | 0 to 5%
13 | CNC(=O)Cc1ccc(Oc2ccnc3cc(C(=O)N4CCC4)sc23)cc1Cl [Example 63, 2-{4-[2-(Azetidine-1-carbonyl)-thieno[3,2-b]pyridin-7-yloxy]-2-chloro-phenyl}-N-methyl-acetamide] | > 10 nM | 0 to 5%
14 | CNC(=O)Cc1ccc(Oc2ccnc3cc(C(=O)N4CC[C@@H](O)C4)sc23)cc1Cl [Example 64, 2-{2-Chloro-4-[2-((R)-3-hydroxy-pyrrolidine-1-carbonyl)-thieno[3,2-b]pyridin-7-yloxy]-phenyl}-N-methyl-acetamide] | > 10 nM | 0 to 5%
15 | CNC(=O)Cc1ccc(Oc2ccnc3cc(-c4nccn4C)sc23)cc1Cl [Example 65, 2-{2-Chloro-4-[2-(1-methyl-1H-imidazol-2-yl)-thieno[3,2-b]pyridin-7-yloxy]-phenyl}-N-methyl-acetamide] | > 10 nM | 0 to 5%
16 | CNC(=O)C1(c2ccc(Oc3ccnc4cc(C(=O)N5CC[C@@H](O)C5)sc34)cc2)CC1 [Example 67, 1-{4-[2-((R)-3-Hydroxy-pyrrolidine-1-carbonyl)-thieno[3,2-b]pyridin-7-yloxy]-phenyl}-cyclopropanecarboxylic acid methylamide] | > 10 nM | 0 to 5%
17 | CNC(=O)Cc1ccc(Oc2ccnc3cc(C(=O)N4CC[C@H](OC)C4)sc23)cc1 [Example 68, 2-{4-[2-((S)-3-Methoxy-pyrrolidine-1-carbonyl)-thieno[3,2-b]pyridin-7-yloxy]-phenyl}-N-methyl-acetamide] | > 10 nM | 0 to 5%
18 | CNC(=O)C(OC)c1ccc(Oc2ccnc3cc(C(=O)N4CC[C@@H](O)C4)sc23)cc1Cl (stereo partly drawn) [Example 70, 2-{2-Chloro-4-[2-((R)-3-hydroxy-pyrrolidine-1-carbonyl)-thieno[3,2-b]pyridin-7-yloxy]-phenyl}-2-methoxy-N-methyl-acetamide] | > 10 nM | 5 to 10%
19 | CNC(=O)C(O)c1ccc(Oc2ccnc3cc(C(=O)N4CC[C@@H](O)C4)sc23)cc1Cl (stereo partly drawn) [Example 71, 2-{2-Chloro-4-[2-((R)-3-hydroxy-pyrrolidine-1-carbonyl)-thieno[3,2-b]pyridin-7-yloxy]-phenyl}-2-hydroxy-N-methyl-acetamide] | > 10 nM | 0 to 5%
20 | CNC(=O)C(OC)c1ccc(Oc2ccnc3cc(-c4nccn4C)sc23)cc1Cl (stereo not shown) [Example 72, 2-{2-Chloro-4-[2-(1-methyl-1H-imidazol-2-yl)-thieno[3,2-b]pyridin-7-yloxy]-phenyl}-2-methoxy-N-methyl-acetamide] | – | 0 to 5%
21 | CNC(=O)C(O)c1ccc(Oc2ccnc3cc(-c4nccn4C)sc23)cc1Cl (stereo not shown) [Example 73, 2-{2-Chloro-4-[2-(1-methyl-1H-imidazol-2-yl)-thieno[3,2-b]pyridin-7-yloxy]-phenyl}-2-hydroxy-N-methyl-acetamide] | – | 0 to 5%
22 | CNC(=O)C(O)c1ccc(Oc2ccnc3cc(-c4nc(C(C)(C)O)cs4)sc23)cc1 (stereo not shown) [Example 75, 2-Hydroxy-2-(4-{2-[4-(1-hydroxy-1-methyl-ethyl)-thiazol-2-yl]-thieno[3,2-b]pyridin-7-yloxy}-phenyl)-N-methyl-acetamide] | > 10 nM | 0 to 5%
23 | CNC(=O)C(O)c1ccc(Oc2ccnc3cc(C(=O)N4CC[C@@H](OC)C4)sc23)cc1 (stereo partly drawn) [Example 77, 2-Hydroxy-2-{4-[2-((R)-3-methoxy-pyrrolidine-1-carbonyl)-thieno[3,2-b]pyridin-7-yloxy]-phenyl}-N-methyl-acetamide] | > 10 nM | 0 to 5%
24 | CNC(=O)C(=O)c1ccc(Oc2ccnc3cc(C(=O)N4CC[C@@H](OC)C4)sc23)cc1 [Example 78, 2-{4-[2-((R)-3-Methoxy-pyrrolidine-1-carbonyl)-thieno[3,2-b]pyridin-7-yloxy]-phenyl}-N-methyl-2-oxo-acetamide] | > 10 nM | > 10%
